According to PubChem BioAssay AID256 (DTP/NCI, 2004):
Values joined by “and” are separate entries in the source; they are usually repeats but may differ in a detail not shown here. Equal values may be shown once. Inconclusive results and toxic doses are left out. Rule for the calls: active = survival T/C of 150% or more; inactive = T/C below 125% in these data.

Tested on: CD2F1 mice, L1210 leukemia ip, survival T/C
Test: NCI In Vivo Anticancer Drug Screen. Data for tumor model L1210 Leukemia (intraperitoneal) in CD2F1 (CDF1) mice
Conditions: higher = longer survival
Outline: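 Ratio T/C, where T is the treated-group value and C the vehicle-dosed control value, from mice implanted with a transplantable tumor.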

[1] = endpoint: mean survival time, dose: 12.5 mg/kg/injection, schedule: Q01DX009 (ip), vehicle: saline
[2] = endpoint: mean survival time, dose: 25.0 mg/kg/injection, schedule: Q01DX009 (ip), vehicle: saline with Tween-80
[3] = endpoint: mean survival time, dose: 25.0 mg/kg/injection, schedule: Q01DX009 (ip), vehicle: saline
[4] = endpoint: mean survival time, dose: 100.0 mg/kg/injection, schedule: Q01DX009 (ip), vehicle: saline with Tween-80
[5] = endpoint: mean survival time, dose: 100.0 mg/kg/injection, schedule: Q01DX001 (ip), vehicle: saline with Tween-80
[6] = endpoint: mean survival time, dose: 400.0 mg/kg/injection, schedule: Q01DX001 (ip), vehicle: saline with Tween-80
[7] = endpoint: mean survival time, dose: 100.0 mg/kg/injection, schedule: Q01DX001 (ip), vehicle: saline
[8] = endpoint: mean survival time, dose: 200.0 mg/kg/injection, schedule: Q01DX001 (ip), vehicle: saline
[9] = endpoint: mean survival time, dose: 100.0 mg/kg/injection, schedule: Q04DX003 (ip), vehicle: saline with Tween-80
[10] = endpoint: mean survival time, dose: 200.0 mg/kg/injection, schedule: Q04DX003 (ip), vehicle: saline with Tween-80
[11] = endpoint: mean survival time, dose: 400.0 mg/kg/injection, schedule: Q04DX003 (ip), vehicle: saline with Tween-80
[12] = endpoint: mean survival time, dose: 12.5 mg/kg/injection, schedule: Q01DX009 (ip), vehicle: saline with Tween-80
[13] = endpoint: mean survival time, dose: 50.0 mg/kg/injection, schedule: Q01DX009 (ip), vehicle: saline with Tween-80
[14] = endpoint: mean survival time, dose: 200.0 mg/kg/injection, schedule: Q01DX009 (ip), vehicle: saline with Tween-80
[15] = endpoint: mean survival time, dose: 400.0 mg/kg/injection, schedule: Q01DX009 (ip), vehicle: saline with Tween-80

Measured: T/C

CN(C)CCCN1c2ccccc2Sc2ccc(C(F)(F)F)cc21
inactive: [1] 106 % of control | endpoint: mean survival time, dose: 12.5 mg/kg/injection, schedule: Q04DX003 (ip), vehicle: saline 100 % of control | endpoint: mean survival time, dose: 16.5 mg/kg/injection, schedule: Q01DX009 (ip), vehicle: saline with Tween-80 103 % of control | endpoint: mean survival time, dose: 25.0 mg/kg/injection, schedule: Q01DX001 (ip), vehicle: saline 100 % of control | [2] 88 % of control | [3] 120 % of control | endpoint: mean survival time, dose: 25.0 mg/kg/injection, schedule: Q04DX003 (ip), vehicle: saline 115 % of control | endpoint: mean survival time, dose: 37.5 mg/kg/injection, schedule: Q01DX009 (ip), vehicle: saline with Tween-80 94 % of control | endpoint: mean survival time, dose: 50.0 mg/kg/injection, schedule: Q01DX001 (ip), vehicle: saline 104 % of control | endpoint: mean survival time, dose: 50.0 mg/kg/injection, schedule: Q04DX003 (ip), vehicle: saline 118 % of control

Cc1ccc(S(=O)(=O)N/N=C\c2cccnc2)cc1
inactive: endpoint: mean survival time, dose: 12.5 mg/kg/injection, schedule: Q04DX003 (ip), vehicle: other 101 % of control | endpoint: mean survival time, dose: 25.0 mg/kg/injection, schedule: Q04DX003 (ip), vehicle: other 101 % of control | endpoint: mean survival time, dose: 50.0 mg/kg/injection, schedule: Q04DX003 (ip), vehicle: other 97 % of control | endpoint: mean survival time, dose: 100.0 mg/kg/injection, schedule: Q04DX003 (ip), vehicle: other 101 % of control | endpoint: mean survival time, dose: 200.0 mg/kg/injection, schedule: Q04DX003 (ip), vehicle: other 97 % of control | endpoint: mean survival time, dose: 400.0 mg/kg/injection, schedule: Q04DX003 (ip), vehicle: other 98 % of control

CC(/C=N\N=C(N)N)=N/N=C(N)N
inactive: endpoint: median survival time, dose: 5.0 mg/kg/injection, schedule: Q01DX009 (ip), vehicle: saline 94 % of control

O=C1C=C(c2ccccc2)C(O)(c2ccccc2)/C1=C/c1ccccc1 (configuration not stated)
inactive: endpoint: mean survival time, dose: 100.0 mg/kg/injection, schedule: Q04DX002 (ip), vehicle: saline with Tween-80 87 % of control | endpoint: mean survival time, dose: 200.0 mg/kg/injection, schedule: Q04DX002 (ip), vehicle: saline with Tween-80 88 % of control

COc1ccc(C=C(C(=O)CCN(C)C)C(=O)CCN(C)C)cc1
inactive: endpoint: median survival time, dose: 25.0 mg/kg/injection, schedule: Q01DX005 (ip), vehicle: saline 100 % of control | endpoint: median survival time, dose: 50.0 mg/kg/injection, schedule: Q01DX005 (ip), vehicle: saline 100 % of control | endpoint: median survival time, dose: 100.0 mg/kg/injection, schedule: Q01DX005 (ip), vehicle: saline 100 % of control | endpoint: median survival time, dose: 200.0 mg/kg/injection, schedule: Q01DX005 (ip), vehicle: saline 102 % of control

O=C1C(=O)c2ccccc2C(O)=C1C(C1=C(O)c2ccccc2C(=O)C1=O)c1ccccc1Br
inactive: endpoint: mean survival time, dose: 100.0 mg/kg/injection, schedule: Q01DX001 (ip), vehicle: saline sonified 98 % of control | [4] 86 % of control | endpoint: mean survival time, dose: 200.0 mg/kg/injection, schedule: Q01DX001 (ip), vehicle: saline sonified 102 % of control | endpoint: mean survival time, dose: 400.0 mg/kg/injection, schedule: Q01DX001 (ip), vehicle: saline sonified 91 % of control

O=C(Cc1ccccc1)c1ccccc1
inactive: [5] 102 % of control | endpoint: mean survival time, dose: 200.0 mg/kg/injection, schedule: Q01DX001 (ip), vehicle: saline with Tween-80 102 % of control | [6] 94 % of control

O=C1CCC2(CCCCC2)N1
inactive: endpoint: mean survival time, dose: 1.25 mg/kg/injection, schedule: Q01DX009 (ip), vehicle: saline 107 % of control | endpoint: mean survival time, dose: 2.5 mg/kg/injection, schedule: Q01DX009 (ip), vehicle: saline 107 % of control | endpoint: mean survival time, dose: 3.13 mg/kg/injection, schedule: Q01DX009 (ip), vehicle: saline 96 % of control | endpoint: mean survival time, dose: 5.0 mg/kg/injection, schedule: Q01DX009 (ip), vehicle: saline 103 % of control | endpoint: mean survival time, dose: 6.25 mg/kg/injection, schedule: Q01DX009 (ip), vehicle: saline 101 % of control | [1] 98 % of control and 101 % of control

CC(=O)OC12C=C(C)C(C3C(=O)OC(=O)C31)C(C)(C)C2 (configuration not stated)
inactive: [7] 103 % of control | [8] 101 % of control

Nc1nc2c(ncn2C2OC(CO)C(O)C2O)c(=O)[n]1[Hg][c]1ccccc1 (configuration not stated)
inactive: endpoint: median survival time, dose: 0.79 mg/kg/injection, schedule: Q01DX005 (ip), vehicle: saline 103 % of control | endpoint: median survival time, dose: 1.56 mg/kg/injection, schedule: Q01DX005 (ip), vehicle: saline 100 % of control | endpoint: median survival time, dose: 3.12 mg/kg/injection, schedule: Q01DX005 (ip), vehicle: saline 100 % of control | endpoint: median survival time, dose: 6.25 mg/kg/injection, schedule: Q01DX005 (ip), vehicle: saline 100 % of control | endpoint: median survival time, dose: 12.5 mg/kg/injection, schedule: Q01DX005 (ip), vehicle: saline 108 % of control

CSc1sc2ccccc2[n+]1C
inactive: [3] 100 % of control | endpoint: mean survival time, dose: 50.0 mg/kg/injection, schedule: Q01DX009 (ip), vehicle: saline 110 % of control

CC1=C/C(=N\Nc2ccccc2)C(C(O)(C(F)(F)Cl)C(F)(F)Cl)C(C)(C)C1 (configuration not stated)
inactive: [9] 96 % of control | [10] 94 % of control | [11] 93 % of control

CC(=O)Nc1ccc([N+](=O)[O-])cc1C
inactive: endpoint: mean survival time, dose: 50.0 mg/kg/injection, schedule: Q04DX003 (ip), vehicle: saline with Tween-80 101 % of control | [9] 100 % of control | [10] 103 % of control

COc1ccc2c(c1OC)CC1N(S(=O)(=O)c3ccc(C)cc3)CCC13c1ccccc1N(C(C)=O)C23 (configuration not stated)
inactive: endpoint: mean survival time, dose: 75.0 mg/kg/injection, schedule: Q01DX001 (ip), vehicle: other 95 % of control | endpoint: mean survival time, dose: 150.0 mg/kg/injection, schedule: Q01DX001 (ip), vehicle: other 89 % of control and 95 % of control | endpoint: mean survival time, dose: 300.0 mg/kg/injection, schedule: Q01DX001 (ip), vehicle: other 97 % of control and 100 % of control

Cc1ccccc1N=C=S
inactive: [12] 98 % of control | [2] 96 % of control | [13] 106 % of control

COC(=O)c1nc2ccccc2cc1C#N
inactive: [7] 97 % of control | [8] 96 % of control

CC(C)CCNC(=O)NS(=O)(=O)c1ccc(N)cc1
inactive: [9] 102 % of control | [10] 102 % of control | [11] 98 % of control

CC(C)CCCC(C)C1CCC2C3CCC45CC4C(=O)CCC5(C)C3CCC12C (configuration not stated)
inactive: endpoint: mean survival time, dose: 100.0 mg/kg/injection, schedule: Q04DX003 (ip), vehicle: acetone 102 % of control | [9] 91 % of control | endpoint: mean survival time, dose: 200.0 mg/kg/injection, schedule: Q04DX003 (ip), vehicle: acetone 93 % of control | [10] 93 % of control | endpoint: mean survival time, dose: 400.0 mg/kg/injection, schedule: Q04DX003 (ip), vehicle: acetone 89 % of control | [11] 95 % of control

CC(=O)NC(C(=O)O)C(C)c1c[nH]c2ccccc12 (configuration not stated)
inactive: [4] 104 % of control | [9] 97 % of control | [14] 96 % of control | [10] 97 % of control | [15] 95 % of control | [11] 91 % of control

Cc1ccc(Cl)c2ccccc12
inactive: [12] 97 % of control | [2] 100 % of control | [13] 97 % of control | [4] 94 % of control

O=C1C=CC(c2ccccc2)(c2ccccc2)C=C1
inactive: [5] 93 % of control | [6] 86 % of control

O=[N+]([O-])c1cccc(N=NN2CCCC2)c1
inactive: [4] 101 % of control | [14] 92 % of control | [15] 87 % of control

CCNc1nc(NCC)nc(OC)n1
inactive: [13] 95 % of control | [4] 105 % of control | [9] 87 % of control | [14] 103 % of control | [10] 89 % of control

CCC(C1=NC(C)(C)CC(C)O1)c1ccccc1 (configuration not stated) (tested in a mixture with another compound)
inactive: [4] 102 % of control | [14] 93 % of control

S=P(Cc1ccccc1)(c1ccccc1)c1ccccc1
inactive: [13] 89 % of control | [4] 90 % of control | [9] 88 % of control | [10] 86 % of control

NCC1CCCC1N (configuration not stated)
inactive: endpoint: mean survival time, dose: 18.8 mg/kg/injection, schedule: Q01DX001 (ip), vehicle: saline 114 % of control | endpoint: mean survival time, dose: 18.8 mg/kg/injection, schedule: Q04DX003 (ip), vehicle: saline 101 % of control | endpoint: mean survival time, dose: 37.5 mg/kg/injection, schedule: Q01DX001 (ip), vehicle: saline 108 % of control | endpoint: mean survival time, dose: 37.5 mg/kg/injection, schedule: Q04DX003 (ip), vehicle: saline 101 % of control | endpoint: mean survival time, dose: 75.0 mg/kg/injection, schedule: Q01DX001 (ip), vehicle: saline 103 % of control | endpoint: mean survival time, dose: 75.0 mg/kg/injection, schedule: Q04DX003 (ip), vehicle: saline 104 % of control

O=C1c2ccccc2S(=O)(=O)N1CCBr
inactive: [4] 97 % of control | [9] 106 % of control | [14] 100 % of control | [10] 106 % of control | [15] 102 % of control | [11] 110 % of control

O=C(O)/C=C\C(=O)Nc1ccccc1
inactive: [4] 93 % of control | [9] 109 % of control | [14] 96 % of control | [10] 101 % of control | [15] 96 % of control | [11] 97 % of control
